Test results taken from ChEMBL document CHEMBL1201862, “PubChem BioAssay data set” (2004).
Active and inactive are the calls of the source.

What was measured:
[1] = target: Dual specificity protein phosphatase 3 (Homo sapiens, UniProt P51452); test: VHR1 inhibitor Ki determination, SAR follow-up, biochemical, colorimetric (AID 2004)
[2] = target: Neuropeptides B/W receptor type 1 (Homo sapiens, UniProt P48145); test: GPR7 antagonist potency, late-stage follow-up, cell-based, fluorescence, dose response (AID 463251); assay type: functional
[3] = target: Melanin-concentrating hormone receptor 1 (Homo sapiens, UniProt Q99705); test: Late-stage fluorescence-based counterscreen for antagonists of the G-protein coupled receptor 7 (GPR7): cell-based dose response assay to identify antagonists of the melanin-concentrating hormone receptor 1 (MCHR1). [Related pubchem assays (depositor defined):AID1861, AID1880, AID1952, AID2148, AID2251, AID2257, AID485339]; assay type: functional;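 further: stimulated with 30 nM MCH peptide agonist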
Melanin-concentrating hormone receptor 1, sequence (Q99705 whole entry): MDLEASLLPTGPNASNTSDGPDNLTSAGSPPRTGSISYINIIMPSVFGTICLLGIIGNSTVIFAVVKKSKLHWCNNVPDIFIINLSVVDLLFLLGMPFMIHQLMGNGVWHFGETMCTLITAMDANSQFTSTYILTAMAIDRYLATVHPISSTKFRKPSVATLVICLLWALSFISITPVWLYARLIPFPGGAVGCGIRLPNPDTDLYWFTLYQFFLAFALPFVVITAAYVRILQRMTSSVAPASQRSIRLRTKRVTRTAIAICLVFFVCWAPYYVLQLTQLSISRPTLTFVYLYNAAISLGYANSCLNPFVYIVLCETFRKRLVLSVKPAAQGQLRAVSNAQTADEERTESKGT

[4] = target: T1, Scavenger receptor class B member 1 (Mus musculus, UniProt Q61009); test: inhibitors of SR-BI mediated HDL lipid uptake, dose response, ldlA[mSR-BI] cells, fluorescence, cherry pick (AID 493194); assay type: functional, cell-based;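 further: cellular uptake of fluorescent DiI-labeled HDL measured as cell fluorescence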
T1 sequence (Q61009 whole entry): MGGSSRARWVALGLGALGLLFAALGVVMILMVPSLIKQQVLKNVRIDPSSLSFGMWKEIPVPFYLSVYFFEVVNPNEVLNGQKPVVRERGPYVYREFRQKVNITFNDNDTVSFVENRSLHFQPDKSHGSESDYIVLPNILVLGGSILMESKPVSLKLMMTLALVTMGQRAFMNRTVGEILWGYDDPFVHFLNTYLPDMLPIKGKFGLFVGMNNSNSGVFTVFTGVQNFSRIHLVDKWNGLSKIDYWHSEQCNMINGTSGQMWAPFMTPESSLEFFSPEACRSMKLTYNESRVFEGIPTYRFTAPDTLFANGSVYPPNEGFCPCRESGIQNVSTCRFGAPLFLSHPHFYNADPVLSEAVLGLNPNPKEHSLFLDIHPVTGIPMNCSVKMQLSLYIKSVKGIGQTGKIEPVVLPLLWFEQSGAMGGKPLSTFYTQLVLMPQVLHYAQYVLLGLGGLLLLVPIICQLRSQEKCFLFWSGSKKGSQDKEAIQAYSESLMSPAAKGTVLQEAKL

[5] = target: X-box-binding protein 1 (Homo sapiens, UniProt P17861); assay type: functional, Cricetulus griseus;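 further: confirmatory dose-response counter-screen serving a CHOP assay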
[6] = target: Prothrombin (Homo sapiens, UniProt P00734); test: Thrombin 1536 HTS Dose Response Confirmation. [Related pubchem assays: 1046 (Thrombin 1536 HTS; hits were confirmed in this assay)]; assay type: functional
[7] = target: T2, Fatty acid synthase (Homo sapiens, UniProt P49327); test: FAS thioesterase domain inhibitors, dose response, biochemical, endpoint fluorescence intensity, uHTS hits (AID 624327); assay type: functional;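 further: fluorescence from hydrolysis of an O-methyl fluorescein acyl ester substrate by the enzyme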
T2 sequence (P49327 whole entry, the tested form may be a part): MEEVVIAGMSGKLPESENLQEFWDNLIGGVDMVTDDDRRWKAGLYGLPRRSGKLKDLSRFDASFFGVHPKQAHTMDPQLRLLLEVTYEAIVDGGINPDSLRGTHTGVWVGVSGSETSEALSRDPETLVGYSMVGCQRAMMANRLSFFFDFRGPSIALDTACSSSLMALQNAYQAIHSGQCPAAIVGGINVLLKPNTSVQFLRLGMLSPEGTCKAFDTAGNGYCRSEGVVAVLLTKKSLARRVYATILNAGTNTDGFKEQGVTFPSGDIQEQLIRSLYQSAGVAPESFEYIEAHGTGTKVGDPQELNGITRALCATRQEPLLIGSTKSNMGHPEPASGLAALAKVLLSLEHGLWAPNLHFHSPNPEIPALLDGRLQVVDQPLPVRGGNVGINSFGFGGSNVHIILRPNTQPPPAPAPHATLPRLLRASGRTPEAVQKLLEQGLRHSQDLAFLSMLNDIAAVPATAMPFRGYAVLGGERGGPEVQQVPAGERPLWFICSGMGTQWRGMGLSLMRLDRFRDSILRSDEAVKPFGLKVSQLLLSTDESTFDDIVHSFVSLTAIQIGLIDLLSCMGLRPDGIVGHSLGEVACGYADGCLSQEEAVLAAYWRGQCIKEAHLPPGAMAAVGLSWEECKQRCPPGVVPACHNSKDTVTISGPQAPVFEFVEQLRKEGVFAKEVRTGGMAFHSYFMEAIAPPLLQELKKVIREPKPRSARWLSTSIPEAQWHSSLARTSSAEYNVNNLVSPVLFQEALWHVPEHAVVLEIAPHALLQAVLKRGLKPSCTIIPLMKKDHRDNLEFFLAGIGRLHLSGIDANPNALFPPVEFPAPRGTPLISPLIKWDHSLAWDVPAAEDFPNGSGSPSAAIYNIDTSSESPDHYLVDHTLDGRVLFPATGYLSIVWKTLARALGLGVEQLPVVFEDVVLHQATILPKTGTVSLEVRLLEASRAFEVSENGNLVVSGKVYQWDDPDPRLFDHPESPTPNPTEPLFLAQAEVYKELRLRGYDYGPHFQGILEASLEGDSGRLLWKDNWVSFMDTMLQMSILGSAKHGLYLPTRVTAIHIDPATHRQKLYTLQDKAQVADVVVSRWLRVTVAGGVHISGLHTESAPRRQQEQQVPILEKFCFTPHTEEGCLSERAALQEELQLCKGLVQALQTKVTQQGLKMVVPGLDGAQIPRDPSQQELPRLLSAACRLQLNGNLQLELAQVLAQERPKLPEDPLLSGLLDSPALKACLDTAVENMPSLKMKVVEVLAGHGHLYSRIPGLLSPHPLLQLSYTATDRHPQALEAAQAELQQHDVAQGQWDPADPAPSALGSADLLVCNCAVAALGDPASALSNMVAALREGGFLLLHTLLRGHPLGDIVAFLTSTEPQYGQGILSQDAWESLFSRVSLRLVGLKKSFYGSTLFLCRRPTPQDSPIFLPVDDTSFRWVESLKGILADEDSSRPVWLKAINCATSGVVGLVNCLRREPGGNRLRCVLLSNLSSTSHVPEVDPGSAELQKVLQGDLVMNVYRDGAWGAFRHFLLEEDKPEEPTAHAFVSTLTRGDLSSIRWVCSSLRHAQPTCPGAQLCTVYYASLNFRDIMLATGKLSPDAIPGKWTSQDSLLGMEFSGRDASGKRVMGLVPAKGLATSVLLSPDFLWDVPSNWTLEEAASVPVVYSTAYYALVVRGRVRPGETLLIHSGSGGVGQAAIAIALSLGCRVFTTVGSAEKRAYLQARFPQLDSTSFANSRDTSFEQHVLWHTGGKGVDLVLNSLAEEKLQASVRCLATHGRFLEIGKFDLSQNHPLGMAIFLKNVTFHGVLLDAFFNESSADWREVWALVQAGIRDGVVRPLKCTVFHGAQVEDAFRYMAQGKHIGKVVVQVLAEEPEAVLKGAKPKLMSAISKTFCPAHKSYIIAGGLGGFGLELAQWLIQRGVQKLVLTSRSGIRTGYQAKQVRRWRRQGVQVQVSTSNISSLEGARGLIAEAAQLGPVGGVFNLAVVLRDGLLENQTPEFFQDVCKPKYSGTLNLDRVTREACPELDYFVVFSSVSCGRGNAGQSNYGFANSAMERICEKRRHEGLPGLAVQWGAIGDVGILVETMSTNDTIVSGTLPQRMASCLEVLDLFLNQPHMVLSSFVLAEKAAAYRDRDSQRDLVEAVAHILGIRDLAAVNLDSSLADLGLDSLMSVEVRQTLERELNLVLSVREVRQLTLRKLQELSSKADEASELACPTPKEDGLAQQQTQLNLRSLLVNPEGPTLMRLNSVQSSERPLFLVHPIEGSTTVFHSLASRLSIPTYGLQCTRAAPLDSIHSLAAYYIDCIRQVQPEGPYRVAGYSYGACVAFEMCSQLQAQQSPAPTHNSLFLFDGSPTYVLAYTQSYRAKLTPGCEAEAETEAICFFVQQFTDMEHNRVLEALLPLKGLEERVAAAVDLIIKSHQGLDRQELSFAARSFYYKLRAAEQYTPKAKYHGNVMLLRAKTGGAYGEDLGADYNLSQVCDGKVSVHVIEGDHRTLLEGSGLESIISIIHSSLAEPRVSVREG

[8] = target: T2, Fatty acid synthase; test: FAS thioesterase domain inhibitors, dose response, biochemical, kinetic fluorescence intensity (AID 624326); assay type: functional;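 further: rate of fluorescence rise from hydrolysis of a fluorogenic O-methyl fluorescein ester substrate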
[9] = target: T3, Coagulation factor XII (Homo sapiens, UniProt P00748); assay type: functional;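 further: activated factor XIIa alpha cleaving a fluorogenic AMC peptide substrate; inhibitor potency from loss of enzyme activity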
T3 sequence (P00748 whole entry): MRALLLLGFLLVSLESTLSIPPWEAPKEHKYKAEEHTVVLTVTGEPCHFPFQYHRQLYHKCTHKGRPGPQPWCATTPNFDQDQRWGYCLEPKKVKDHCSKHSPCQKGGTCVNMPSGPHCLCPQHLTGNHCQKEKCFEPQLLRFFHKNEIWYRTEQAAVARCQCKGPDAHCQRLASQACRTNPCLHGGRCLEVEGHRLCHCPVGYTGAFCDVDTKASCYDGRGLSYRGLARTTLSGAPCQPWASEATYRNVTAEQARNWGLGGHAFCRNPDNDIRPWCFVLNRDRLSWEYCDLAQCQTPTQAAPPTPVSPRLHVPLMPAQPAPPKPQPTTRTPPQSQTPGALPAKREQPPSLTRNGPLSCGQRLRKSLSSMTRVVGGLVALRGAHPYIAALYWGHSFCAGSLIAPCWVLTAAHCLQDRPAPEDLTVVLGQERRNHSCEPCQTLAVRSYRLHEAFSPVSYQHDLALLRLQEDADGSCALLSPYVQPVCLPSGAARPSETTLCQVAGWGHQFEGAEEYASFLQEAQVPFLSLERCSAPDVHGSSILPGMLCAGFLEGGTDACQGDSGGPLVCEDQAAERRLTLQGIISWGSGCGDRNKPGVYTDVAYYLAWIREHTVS

[10] = target: DNA damage-inducible transcript 3 protein (Mus musculus, UniProt P35639); assay type: functional, Cricetulus griseus
DNA damage-inducible transcript 3 protein, sequence (P35639 whole entry): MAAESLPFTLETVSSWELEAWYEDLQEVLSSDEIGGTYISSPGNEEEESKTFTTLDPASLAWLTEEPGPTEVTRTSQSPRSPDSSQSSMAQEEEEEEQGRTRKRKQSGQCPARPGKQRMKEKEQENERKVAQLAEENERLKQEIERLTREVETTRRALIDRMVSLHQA

[11] = target: Genome polyprotein (dengue virus type 2, UniProt P29990); test: Dengue-2 NS5 methyltransferase inhibitors, primary screen, biochemical, confirmation dose response (AID 588689); assay type: functional
[12] = target: T4, Protein phosphatase methylesterase 1 (Homo sapiens, UniProt Q9Y570); test: Late stage results from the probe development effort to identify inhibitors of the protein methylesterase PME-1: Gel-based Activity-Based Protein Profiling (ABPP) IC50: Purified enzyme.; assay type: functional
T4 sequence (Q9Y570 whole entry): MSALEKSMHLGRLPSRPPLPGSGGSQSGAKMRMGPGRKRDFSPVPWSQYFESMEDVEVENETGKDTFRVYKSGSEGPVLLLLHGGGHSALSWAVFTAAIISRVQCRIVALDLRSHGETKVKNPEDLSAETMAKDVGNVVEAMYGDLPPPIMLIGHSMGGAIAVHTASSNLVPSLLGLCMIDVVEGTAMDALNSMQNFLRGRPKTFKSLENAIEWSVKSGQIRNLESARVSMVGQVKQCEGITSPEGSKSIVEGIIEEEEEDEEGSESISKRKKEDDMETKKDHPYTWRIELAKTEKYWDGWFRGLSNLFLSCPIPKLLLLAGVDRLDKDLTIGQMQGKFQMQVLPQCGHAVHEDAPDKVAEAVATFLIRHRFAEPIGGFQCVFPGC

[13] = target: T4, Protein phosphatase methylesterase 1; test: PME-1 inhibitor potency by in-gel ABPP, dose response, selectivity assay for PME-1 inhibitor project, cell lysate, mouse brain cytosol, FP-rhodamine, panel member PME-1 Assay Panel member description: Inhibition of endogenously expressed PME-1 (AID 2366)
[14] = target: T5, Corticotropin-releasing factor receptor 2/Corticotropin-releasing factor-binding protein (Homo sapiens, UniProt P24387+Q13324); test: activators of CRF receptor 2 with binding protein – uHTS hits, confirmation (AID 602473); assay type: functional; settings: read-out: EC50_Mean
T5 sequence (Q13324 whole entry): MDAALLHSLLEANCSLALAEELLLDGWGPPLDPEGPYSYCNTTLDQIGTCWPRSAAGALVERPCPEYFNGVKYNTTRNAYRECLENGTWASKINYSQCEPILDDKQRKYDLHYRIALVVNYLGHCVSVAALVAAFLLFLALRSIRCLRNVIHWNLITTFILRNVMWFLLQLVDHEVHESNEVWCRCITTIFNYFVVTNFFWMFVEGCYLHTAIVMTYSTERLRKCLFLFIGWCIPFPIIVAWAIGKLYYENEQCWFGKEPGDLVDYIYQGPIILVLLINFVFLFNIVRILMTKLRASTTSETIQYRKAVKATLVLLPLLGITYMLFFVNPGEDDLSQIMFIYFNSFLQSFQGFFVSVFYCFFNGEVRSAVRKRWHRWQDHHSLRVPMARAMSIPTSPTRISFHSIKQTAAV
T5 sequence (P24387 whole entry): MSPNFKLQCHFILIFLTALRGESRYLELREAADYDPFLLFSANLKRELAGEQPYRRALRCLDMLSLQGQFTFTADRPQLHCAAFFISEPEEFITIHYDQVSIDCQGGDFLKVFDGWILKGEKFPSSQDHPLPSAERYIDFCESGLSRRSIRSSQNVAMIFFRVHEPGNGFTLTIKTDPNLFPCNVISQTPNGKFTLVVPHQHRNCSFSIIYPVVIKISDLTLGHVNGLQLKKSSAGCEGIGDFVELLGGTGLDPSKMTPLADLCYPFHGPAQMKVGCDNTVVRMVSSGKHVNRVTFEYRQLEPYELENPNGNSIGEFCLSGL

[15] = target: T6, Carboxy-terminal domain RNA polymerase II polypeptide A small phosphatase 1 (Homo sapiens, UniProt Q9GZU7); test: inhibitors of CTDSP1, concentration-response testing, biochemical assay, absorbance-based, actives from ultra-high-throughput screening (AID 540297); assay type: functional
T6 sequence (Q9GZU7 whole entry): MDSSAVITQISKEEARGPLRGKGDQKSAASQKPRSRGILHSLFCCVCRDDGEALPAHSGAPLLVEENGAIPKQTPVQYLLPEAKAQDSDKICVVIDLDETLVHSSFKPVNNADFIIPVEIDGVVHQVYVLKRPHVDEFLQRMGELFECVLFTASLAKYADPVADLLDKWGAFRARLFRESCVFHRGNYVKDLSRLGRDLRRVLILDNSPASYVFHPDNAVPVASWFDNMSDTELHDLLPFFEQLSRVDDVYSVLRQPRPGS

[16] = target: Envelope glycoprotein gp160 (Human immunodeficiency virus 1, UniProt Q6QLK5); test: inhibitors of HIV fusion peptide binding, primary screen, biochemical, uHTS, fluorescence dequenching (AID 1986)
Envelope glycoprotein gp160, sequence (Q6QLK5 whole entry, the tested form may be a part): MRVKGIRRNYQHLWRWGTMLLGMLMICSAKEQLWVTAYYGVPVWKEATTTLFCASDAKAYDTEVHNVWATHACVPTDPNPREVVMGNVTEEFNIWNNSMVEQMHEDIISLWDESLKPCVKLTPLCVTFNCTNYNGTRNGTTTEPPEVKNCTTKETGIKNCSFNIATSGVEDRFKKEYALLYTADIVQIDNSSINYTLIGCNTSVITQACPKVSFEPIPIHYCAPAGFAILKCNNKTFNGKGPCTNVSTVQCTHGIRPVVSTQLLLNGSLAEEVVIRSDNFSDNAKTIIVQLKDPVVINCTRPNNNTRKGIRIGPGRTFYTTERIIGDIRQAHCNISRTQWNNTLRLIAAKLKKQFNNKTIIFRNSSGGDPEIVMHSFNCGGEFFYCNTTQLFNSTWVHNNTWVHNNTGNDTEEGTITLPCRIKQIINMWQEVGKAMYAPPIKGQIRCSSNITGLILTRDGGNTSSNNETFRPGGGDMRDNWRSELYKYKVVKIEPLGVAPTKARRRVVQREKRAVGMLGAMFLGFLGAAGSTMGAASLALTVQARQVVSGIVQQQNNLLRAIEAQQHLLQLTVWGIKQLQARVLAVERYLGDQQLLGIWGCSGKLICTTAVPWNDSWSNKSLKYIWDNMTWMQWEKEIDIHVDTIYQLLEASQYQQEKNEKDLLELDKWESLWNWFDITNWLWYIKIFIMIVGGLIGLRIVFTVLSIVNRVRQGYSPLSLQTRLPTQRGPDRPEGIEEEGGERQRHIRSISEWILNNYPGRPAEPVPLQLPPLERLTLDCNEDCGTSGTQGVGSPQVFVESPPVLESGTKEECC

[17] = target: T5, Corticotropin-releasing factor receptor 2/Corticotropin-releasing factor-binding protein; test: Dose Response confirmation of uHTS hits for small molecule antagonists of the CRF-binding protein and CRF-R2 receptor complex.; assay type: functional; settings: read-out: IC50_Mean
[18] = CRF-BP/CRF-R2 complex antagonists, dose response, cell-based, uHTS hits, 384-well (AID 651639); assay type: functional, Homo sapiens; settings: read-out: IC50_Mean
[19] = tested on: INS1; test: beta cell apoptosis inhibitors, cytokine rescue, dose response, luminescence, retest (AID 449756); assay type: functional, cell-based; settings: Rattus norvegicus;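 further: cell death triggered by IL-1 beta plus TNF-alpha plus IFN-gamma mixture; protective hits raise ATP signal compared with cytokine alone wells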
[20] = target: Beta-galactosidase (Escherichia coli, UniProt Q8VNN2); test: beta-galactosidase enzyme inhibitors and activators, dose response, artefact control for CCR6 antagonist project, biochemical, E. coli enzyme, set 3 (AID 504712); assay type: functional
[21] = target: T7, Hexokinase HKDC1 (Homo sapiens, UniProt Q2TB90); test: HKDC1 hexokinase inhibitors, dose response, biochemical, W721R variant (AID 504729); assay type: functional
T7 sequence (Q2TB90 whole entry): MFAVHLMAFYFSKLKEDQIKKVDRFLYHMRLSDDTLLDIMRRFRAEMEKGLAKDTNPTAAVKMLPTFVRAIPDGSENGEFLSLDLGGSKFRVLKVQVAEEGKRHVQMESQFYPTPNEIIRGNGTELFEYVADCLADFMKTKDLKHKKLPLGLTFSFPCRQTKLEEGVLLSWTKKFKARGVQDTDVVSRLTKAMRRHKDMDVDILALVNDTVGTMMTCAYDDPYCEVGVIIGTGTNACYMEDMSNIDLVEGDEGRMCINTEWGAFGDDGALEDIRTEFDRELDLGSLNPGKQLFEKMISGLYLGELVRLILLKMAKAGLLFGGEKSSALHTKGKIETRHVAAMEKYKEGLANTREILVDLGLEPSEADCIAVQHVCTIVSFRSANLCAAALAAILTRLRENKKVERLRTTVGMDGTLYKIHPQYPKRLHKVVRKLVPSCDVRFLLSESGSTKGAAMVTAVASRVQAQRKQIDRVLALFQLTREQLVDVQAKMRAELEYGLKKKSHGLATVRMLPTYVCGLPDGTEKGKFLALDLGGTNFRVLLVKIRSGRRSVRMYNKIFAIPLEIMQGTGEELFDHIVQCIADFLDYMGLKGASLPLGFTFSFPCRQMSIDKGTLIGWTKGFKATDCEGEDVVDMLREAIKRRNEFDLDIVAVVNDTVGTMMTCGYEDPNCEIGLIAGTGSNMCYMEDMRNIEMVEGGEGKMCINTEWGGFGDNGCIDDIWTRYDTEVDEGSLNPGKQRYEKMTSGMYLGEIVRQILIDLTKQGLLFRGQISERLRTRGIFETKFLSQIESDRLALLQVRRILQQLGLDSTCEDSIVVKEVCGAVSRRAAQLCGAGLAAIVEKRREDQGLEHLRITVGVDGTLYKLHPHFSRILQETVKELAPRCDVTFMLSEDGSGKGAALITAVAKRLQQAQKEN

[22] = tested on: HeLa; test: HeLa cell cytotoxicity, dose response, cytotoxicity control, 24 h, cherry-picked samples (AID 504726); assay type: functional, cell-based; settings: Homo sapiens;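 further: potency for cytotoxicity as loss of luminescence signal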
[23] = target: Induced myeloid leukemia cell differentiation protein Mcl-1 (Homo sapiens, UniProt Q07820); assay type: functional
[24] = target: C-C chemokine receptor type 6 (Homo sapiens, UniProt P51684); test: CCR6 receptor antagonists, dose response, cell-based, luminescent beta-arrestin readout (AID 504728); assay type: functional
C-C chemokine receptor type 6, sequence (P51684 whole entry): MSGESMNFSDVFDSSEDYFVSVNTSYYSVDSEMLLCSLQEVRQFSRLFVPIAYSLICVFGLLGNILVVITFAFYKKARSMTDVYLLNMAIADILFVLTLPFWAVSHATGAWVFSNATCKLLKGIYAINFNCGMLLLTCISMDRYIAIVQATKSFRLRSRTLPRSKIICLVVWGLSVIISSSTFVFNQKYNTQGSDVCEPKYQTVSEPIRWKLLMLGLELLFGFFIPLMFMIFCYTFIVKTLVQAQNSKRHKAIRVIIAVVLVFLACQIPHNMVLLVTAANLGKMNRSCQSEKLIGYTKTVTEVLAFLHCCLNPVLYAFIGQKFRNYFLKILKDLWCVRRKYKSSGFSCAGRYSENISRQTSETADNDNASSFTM

[25] = target: Eukaryotic translation initiation factor 4E (Mus musculus, UniProt P63073); test: eIF4E–eIF4G protein interaction inhibitors, dose response, biochemical, TR-FRET (AID 855); assay type: functional;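 further: potency for disrupting eIF4E binding to eIF4GI seen as loss of FRET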
Eukaryotic translation initiation factor 4E, sequence (P63073 whole entry): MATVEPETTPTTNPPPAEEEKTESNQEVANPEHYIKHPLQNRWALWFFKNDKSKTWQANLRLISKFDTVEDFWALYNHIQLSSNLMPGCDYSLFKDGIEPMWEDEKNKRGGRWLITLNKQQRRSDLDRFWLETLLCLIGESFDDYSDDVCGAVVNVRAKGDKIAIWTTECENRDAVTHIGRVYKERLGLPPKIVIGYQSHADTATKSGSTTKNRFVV

Dual specificity protein phosphatase 3, sequence (P51452 whole entry): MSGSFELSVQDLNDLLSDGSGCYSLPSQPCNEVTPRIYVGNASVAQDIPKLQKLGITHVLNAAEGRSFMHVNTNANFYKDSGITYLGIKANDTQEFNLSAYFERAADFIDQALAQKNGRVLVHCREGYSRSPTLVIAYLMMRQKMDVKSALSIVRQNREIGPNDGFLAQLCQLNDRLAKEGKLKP

S=C(NCCN1CCOCC1)Nc1ccccc1
Ki [1]: 64.3 µM (inactive)

CCOC(=O)c1cccc(-n2ncc(Cl)c(Oc3ccc(OC)cc3)c2=O)c1
IC50 [2]: 1.1 µM (active)
IC50 [3]: 3.7 µM (active)

CC(OC(=O)c1cccc(NS(C)(=O)=O)c1)C(=O)Nc1ccc(N2CCOCC2)cc1 (stereo unspecified)
AC50 [4]: 1.56 µM (active)

Cc1ccc(C)c(S(=O)(=O)ON2C(=O)c3ccccc3C2=O)c1
Absolute IC50 (XBP1) [5]: 10 µM
IC50 [6]: 1.57 µM (active)
IC50 [7]: 1.72 µM (active)
IC50 [8]: 3.7 µM (active)
IC50 [9]: 2.59 µM (active)
Absolute IC50 (CHOP) [10]: 10 µM
IC50 [11]: > 100 µM (active)

CS(=O)(=O)C(C#N)Cc1cccn1S(=O)(=O)c1ccccc1 (stereo unspecified)
IC50 [12]: > 20 µM (not active)
IC50 [13]: > 20 µM (inactive)

COc1cc(/C=C2\C(=N)N3N=C(S(C)(=O)=O)SC3=NC2=O)ccc1OCCOc1ccc(C)cc1
EC50 [14]: > 53 µM (inactive)
IC50 [15]: 3.15 µM (active)
IC50 [16]: > 99 µM (inactive)
IC50 [17]: 1.84 µM (active)
IC50 [18]: 4.48 µM (active)

Cc1ccc(S(=O)(=O)/N=C2/C=C(Sc3nc[nH]n3)C(=O)c3ccccc32)cc1
AC50 [19]: 6.84 µM (active)
IC50 [20]: > 66.6 µM (inactive)
IC50 [21]: 1.8 µM (active)
AC50 [22]: 23.1 µM (active)
IC50 [23]: 19.7 µM (active)
IC50 [24]: 3.12 µM (active)
Absolute IC50 (CHOP) [10]: 10 µM
IC50 [25]: > 64 µM (inactive)
